Assay results reported in patent US11753445B2, “Therapeutic peptides” (COHBAR, INC., priority 2016, dated 2023).
Peptide text beside a SMILES is read from it.

Assays:
[1] = system: 3T3-L1 Adipocytes; experiment: Free fatty acid levels in cultured mouse 3T3-L1 adipocytes, isoproterenol stimulated (Example 2); assay type: cell-based; conditions: test peptides 25 μM; isoproterenol 1 nM
Description: Mouse 3T3-L1 cells were seeded at a density between 1,000-20,000 cells per well on 96-well, 48-well, or 24-well plates in Pre-adipocyte Medium (Zen-Bio, Durham, N.C.) and grown to confluence at 37° C. in a humidified atmosphere of 5% CO2/95% air. Two days after confluence, cells were placed in Adipocyte Differentiation Medium (Zen-Bio, Durham, N.C.) and cultured for three additional days at 37° C. in a humidified atmosphere of 5% CO2/95% air. The culture media was then replaced with Adipocyte Maintenance Medium (Zen-Bio) and the cells were maintained for an additional 9-14 days at 37° C. in a humidified atmosphere of 5% CO2/95% air with partial medium replacement every other day. Following 12-17 days of differentiation, test peptides were added at a final concentration of 25 μM and incubated for 18-20 hours in Adipocyte Maintenance Medium at 37° C. in a humidified atmosphere of 5% CO2/95%. After 18-20 hours, the media was exchanged with fresh Adipocyte Maintenance Medium containing test peptides and incubated for 1 h at 37° C. in a humidified atmosphere of 5% CO2/95%. After 1 h media was exchanged with Assay Buffer (Zen-Bio) containing isoproterenol (1 nM) (added to all samples except untreated controls) and the test peptides. Cells were incubated for a further 3 hours at 37° C. in a humidified atmosphere of 5% CO2/95%. Free fatty acid concentrations in the media were determined using a Free Fatty Acid Assay Kit (Zen-Bio) according to the manufacturer's instructions using a plate reader (540 nm).
Absorbance values were corrected for untreated background and expressed relative to isoproterenol treated cells. Treatment with isoproterenol (1 nM) alone was used as the free fatty acid level stimulatory control. The relative standard deviation of the isoproterenol control was <10%. […] Free fatty acid levels for insulin (100 nM) treatment were <5% of the isoproterenol control value.

[2] = Stability in mouse plasma, peptides 10 uM (Example 15); assay type: in vitro ADME; conditions: mouse plasma 37° C., peptide 10 uM; for remaining at 0.25 h, 10 uM / remaining at 0.5 h, 10 uM / remaining at 1 h, 10 uM / remaining at 2 h, 10 uM / remaining at 3 h, 10 uM: pooled mouse plasma; for remaining at 0.25 h, 10 uM: 15 min, read-out: % Remaining at Each Time Point: 15 min; for remaining at 0.5 h, 10 uM: 30 min, read-out: % Remaining at Each Time Point: 30 min; for remaining at 1 h, 10 uM: 60 min, read-out: % Remaining at Each Time Point: 60 min; for remaining at 2 h, 10 uM: 120 min, read-out: % Remaining at Each Time Point: 120 min; for remaining at 3 h, 10 uM: 180 min, read-out: % Remaining at Each Time Point: 180 min
Description: Peptides (10 uM) were incubated in pooled mouse plasma at 37° C. and samples were removed and immediately analyzed for the concentration of intact peptide by LC/MS/MS over the course of 3 hours. The percent of peptide remaining in plasma at each time point was calculated relative to the initial peak area (Table 13).

## H-MRWQEMGYIFYPKKLR-OH [compound 123]
[1]
  Free Fatty Acid Levels in 3T3-L1 Adipocytes Expressed as a Percent of Isoproterenol Control: Percent of Control Value: 58.8%

## H-RWQEMNYIFYPR-OH [compound 248]
[1]
  Free Fatty Acid Levels in 3T3-L1 Adipocytes Expressed as a Percent of Isoproterenol Control: Percent of Control Value: 50.4%

## H-RWQEEQYIFYPR-OH [compound 263]
[2]
  % Remaining at Each Time Point: 0 min: 100%
  remaining at 0.25 h, 10 uM: 80.7%
  remaining at 0.5 h, 10 uM: 68.6%
  remaining at 1 h, 10 uM: 46.9%
  remaining at 2 h, 10 uM: 40.5%
  remaining at 3 h, 10 uM: 30.8%

## CC[C@H](C)[C@H](NC(=O)[C@H](Cc1ccc(O)cc1)NC(=O)CNC(=O)[C@H](CCSC)NC(=O)[C@H](CCC(=O)O)NC(=O)[C@H](CCC(N)=O)NC(=O)[C@H](Cc1c[nH]c2ccccc12)NC(=O)C(C)(C)NC(=O)[C@@H](N)CCSC)C(=O)N[C@@H](Cc1ccccc1)C(=O)N[C@@H](Cc1ccc(O)cc1)C(=O)N1CCC[C@H]1C(=O)N[C@@H](CCCNC(=N)N)C(=O)N[C@@H](CCCCN)C(=O)N[C@@H](CC(C)C)C(=O)N[C@@H](CCCNC(=N)N)C(=O)O [compound 118] (HELM PEPTIDE1{M.[Aib].W.Q.E.M.G.Y.I.F.Y.P.R.K.L.R}$$$$V2.0)
[1]
  Free Fatty Acid Levels in 3T3-L1 Adipocytes Expressed as a Percent of Isoproterenol Control: Percent of Control Value: 84.6%

## Ac-LRWQEMGYIFYPRLKR-NH2 [compound 110]
[1]
  Free Fatty Acid Levels in 3T3-L1 Adipocytes Expressed as a Percent of Isoproterenol Control: Percent of Control Value: 82.6%

## CC[C@H](C)[C@H](NC(=O)[C@H](Cc1ccc(O)cc1)NC(=O)CNC(=O)[C@H](C)NC(=O)[C@H](CCC(=O)O)NC(=O)[C@H](CCC(N)=O)NC(=O)[C@H](Cc1c[nH]c2ccccc12)NC(=O)[C@H](CCCNC(=N)N)NC(=O)[C@@H](C)N)C(=O)N[C@@H](C)C(=O)N[C@@H](CCC(=O)O)C(=O)N1CCC[C@H]1C(=O)N[C@@H](CCCNC(=N)N)C(=O)N[C@@H](CCCCN)C(=O)N[C@@H](CC(C)C)C(=O)N[C@H](C)C(=O)O [compound 246] (HELM PEPTIDE1{[dA].R.W.Q.E.A.G.Y.I.A.E.P.R.K.L.[dA]}$$$$V2.0)
[1]
  Free Fatty Acid Levels in 3T3-L1 Adipocytes Expressed as a Percent of Isoproterenol Control: Percent of Control Value: 73.9%

## H-MREQEMGYIFYPRKLR-OH [compound 170]
[1]
  Free Fatty Acid Levels in 3T3-L1 Adipocytes Expressed as a Percent of Isoproterenol Control: Percent of Control Value: 48.0%

## Ac-MRWQEMGYEFYPRKLR-NH2 [compound 190]
[1]
  Free Fatty Acid Levels in 3T3-L1 Adipocytes Expressed as a Percent of Isoproterenol Control: Percent of Control Value: 95.0%

## CC[C@H](C)[C@H](NC(=O)[C@H](Cc1ccc(O)cc1)NC(=O)CNC(=O)[C@H](CCSC)NC(=O)[C@H](CCC(=O)O)NC(=O)[C@H](CCC(N)=O)NC(=O)[C@H](Cc1c[nH]c2ccccc12)NC(=O)[C@H](CCCNC(=N)N)NC(=O)[C@H](CCSC)NC(C)=O)C(=O)N[C@H](C)C(=O)N[C@@H](Cc1ccc(O)cc1)C(=O)N1CCC[C@H]1C(=O)N[C@@H](CCCNC(=N)N)C(=O)N[C@@H](CCCCN)C(=O)N[C@@H](CC(C)C)C(=O)N[C@@H](CCCNC(=N)N)C(N)=O [compound 161] (HELM PEPTIDE1{[ac].M.R.W.Q.E.M.G.Y.I.[dA].Y.P.R.K.L.R.[am]}$$$$V2.0)
[1]
  Free Fatty Acid Levels in 3T3-L1 Adipocytes Expressed as a Percent of Isoproterenol Control: Percent of Control Value: 83.7%

## CC[C@H](C)[C@H](NC(=O)[C@H](Cc1ccc(O)cc1)NC(=O)CNC(=O)[C@H](CCSC)NC(=O)[C@@H](C)NC(=O)[C@H](CCC(N)=O)NC(=O)[C@H](Cc1c[nH]c2ccccc12)NC(=O)[C@H](CCCNC(=N)N)NC(=O)[C@@H](N)CCSC)C(=O)N[C@@H](Cc1ccccc1)C(=O)N[C@@H](Cc1ccc(O)cc1)C(=O)N1CCC[C@H]1C(=O)N[C@@H](CCCNC(=N)N)C(=O)N[C@@H](CCCCN)C(=O)N[C@@H](CC(C)C)C(=O)N[C@@H](CCCNC(=N)N)C(=O)O [compound 140] (HELM PEPTIDE1{M.R.W.Q.[dA].M.G.Y.I.F.Y.P.R.K.L.R}$$$$V2.0)
[1]
  Free Fatty Acid Levels in 3T3-L1 Adipocytes Expressed as a Percent of Isoproterenol Control: Percent of Control Value: 60.8%

## Ac-MRWQEMGYIFY-NH2 [compound 63]
[1]
  Free Fatty Acid Levels in 3T3-L1 Adipocytes Expressed as a Percent of Isoproterenol Control: Percent of Control Value: 70.5%

## CC[C@H](C)[C@H](NC(=O)[C@H](Cc1ccc(O)cc1)NC(=O)CNC(=O)[C@H](CCC(=O)O)NC(=O)[C@H](CCC(=O)O)NC(=O)[C@H](CCC(N)=O)NC(=O)[C@H](Cc1c[nH]c2ccccc12)NC(=O)[C@H](CCCNC(=N)N)NC(=O)[C@@H](C)N)C(=O)N[C@@H](Cc1ccccc1)C(=O)N[C@@H](Cc1ccc(O)cc1)C(=O)N1CCC[C@H]1C(=O)N[C@@H](CCCNC(=N)N)C(=O)N[C@@H](CCCCN)C(=O)N[C@@H](CC(C)C)C(=O)N[C@H](C)C(=O)O [compound 231] (HELM PEPTIDE1{[dA].R.W.Q.E.E.G.Y.I.F.Y.P.R.K.L.[dA]}$$$$V2.0)
[1]
  Free Fatty Acid Levels in 3T3-L1 Adipocytes Expressed as a Percent of Isoproterenol Control: Percent of Control Value: 61.6%

## H-MRWQEMGYIFEPRKLR-OH [compound 177]
[1]
  Free Fatty Acid Levels in 3T3-L1 Adipocytes Expressed as a Percent of Isoproterenol Control: Percent of Control Value: 61.4%

## Ac-MREQEMGYIFYPRKLR-NH2 [compound 185]
[1]
  Free Fatty Acid Levels in 3T3-L1 Adipocytes Expressed as a Percent of Isoproterenol Control: Percent of Control Value: 77.0%

## CC[C@H](C)[C@H](NC(=O)[C@H](Cc1ccc(O)cc1)NC(=O)CNC(=O)[C@H](CCC(=O)O)NC(=O)[C@H](CCC(=O)O)NC(=O)[C@H](CCC(N)=O)NC(=O)[C@H](Cc1c[nH]c2ccccc12)NC(=O)[C@H](CCCNC(=N)N)NC(=O)[C@@H](C)N)C(=O)N[C@@H](Cc1ccccc1)C(=O)N[C@@H](Cc1ccc(O)cc1)C(=O)N1CCC[C@H]1C(=O)N[C@@H](CCCNC(=N)N)C(=O)N[C@@H](CCCCN)C(=O)N[C@@H](CC(C)C)C(=O)N[C@@H](C)C(=O)O [compound 230] (HELM PEPTIDE1{[dA].R.W.Q.E.E.G.Y.I.F.Y.P.R.K.L.A}$$$$V2.0)
[1]
  Free Fatty Acid Levels in 3T3-L1 Adipocytes Expressed as a Percent of Isoproterenol Control: Percent of Control Value: 94.5%

## Ac-MRWQEMGYIFYPRKER-NH2 [compound 196]
[1]
  Free Fatty Acid Levels in 3T3-L1 Adipocytes Expressed as a Percent of Isoproterenol Control: Percent of Control Value: 80.5%

## H-MGWQEMGYIFYPRKLR-OH [compound 77]
[1]
  Free Fatty Acid Levels in 3T3-L1 Adipocytes Expressed as a Percent of Isoproterenol Control: Percent of Control Value: 112.5%

## CC[C@H](C)[C@H](NC(=O)[C@H](Cc1ccc(O)cc1)NC(=O)CNC(=O)[C@H](CCSC)NC(=O)[C@H](CCC(=O)O)NC(=O)[C@H](CCC(N)=O)NC(=O)[C@H](Cc1c[nH]c2ccccc12)NC(=O)C(C)(C)NC(=O)[C@@H](N)CCSC)C(=O)N[C@@H](Cc1ccccc1)C(=O)N[C@@H](Cc1ccc(O)cc1)C(=O)N1CCC[C@H]1C(=O)N[C@@H](CCCNC(=N)N)C(=O)N[C@@H](CCCCN)C(=O)N[C@@H](CC(C)C)C(=O)N[C@@H](CCCNC(=N)N)C(N)=O [compound 119] (HELM PEPTIDE1{M.[Aib].W.Q.E.M.G.Y.I.F.Y.P.R.K.L.R.[am]}$$$$V2.0)
[1]
  Free Fatty Acid Levels in 3T3-L1 Adipocytes Expressed as a Percent of Isoproterenol Control: Percent of Control Value: 89.2%

## H-RWQEENYIFEPR-OH [compound 259]
[2]
  % Remaining at Each Time Point: 0 min: 100%
  remaining at 0.25 h, 10 uM: 82.2%
  remaining at 0.5 h, 10 uM: 65.2%
  remaining at 1 h, 10 uM: 42.2%
  remaining at 2 h, 10 uM: 32.8%
  remaining at 3 h, 10 uM: 34.8%

## H-RWQEMQYIFEPR-OH [compound 254]
[2]
  % Remaining at Each Time Point: 0 min: 100%
  remaining at 0.25 h, 10 uM: 52.4%
  remaining at 0.5 h, 10 uM: 33.3%
  remaining at 1 h, 10 uM: 30.3%
  remaining at 2 h, 10 uM: 24%
  remaining at 3 h, 10 uM: 18.1%

## H-RWQEENYIAEPR-OH [compound 261]
[2]
  % Remaining at Each Time Point: 0 min: 100%
  remaining at 0.25 h, 10 uM: 85%
  remaining at 0.5 h, 10 uM: 73.4%
  remaining at 1 h, 10 uM: 69.3%
  remaining at 2 h, 10 uM: 68.1%
  remaining at 3 h, 10 uM: 73.7%

## H-RWQEENYIFYPR-OH [compound 258]
[2]
  % Remaining at Each Time Point: 0 min: 100%
  remaining at 0.25 h, 10 uM: 63.2%
  remaining at 0.5 h, 10 uM: 53.5%
  remaining at 1 h, 10 uM: 36.3%
  remaining at 2 h, 10 uM: 30.3%
  remaining at 3 h, 10 uM: 21.7%

## H-RWQEMQYIAYPR-OH [compound 255]
[2]
  % Remaining at Each Time Point: 0 min: 100%
  remaining at 0.25 h, 10 uM: 78.3%
  remaining at 0.5 h, 10 uM: 62.6%
  remaining at 1 h, 10 uM: 40.9%
  remaining at 2 h, 10 uM: 28.7%
  remaining at 3 h, 10 uM: 19.6%
